Reference: ChEMBL document CHEMBL1201861, “Genomics of Drug Sensitity in Cancer screening data, Wellcome Trust Sanger Institute”
pIC50: −log10 of the molar value.

test system: DSH1; assay: cells; format: functional, cell-based; settings: Homo sapiens;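 also: growth inhibition of human DSH1 cells, measured with a cell viability readout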
Description: SANGER: Inhibition of human DSH1 cell growth in a cell viability assay.

SMILES	pIC50
COC(=O)[C@H](CCSC)NC(=O)c1ccc(NC[C@@H](N)CS)cc1-c1ccccc1	< 5.99

test system: OMC-1; assay: cells; format: functional, cell-based, Homo sapiens; settings: Homo sapiens, OMC-1;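 also: growth inhibition of the OMC-1 cell line, measured by a cell viability assay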
Description: SANGER: Inhibition of human OMC-1 cell growth in a cell viability assay.

SMILES	pIC50
COC(=O)[C@H](CCSC)NC(=O)c1ccc(NC[C@@H](N)CS)cc1-c1ccccc1	< 5.99

test system: LC-2-ad; assay: cells; format: functional, cell-based, Homo sapiens; settings: Homo sapiens, LC-2-ad;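 also: growth inhibition of human LC-2-ad cells, read out with a cell viability assay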
Description: SANGER: Inhibition of human LC-2-ad cell growth in a cell viability assay.

SMILES	pIC50
COC(=O)[C@H](CCSC)NC(=O)c1ccc(NC[C@@H](N)CS)cc1-c1ccccc1	< 5.99

test system: EW-3; assay: cells; format: functional, cell-based, Homo sapiens; settings: Homo sapiens, EW-3;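 also: cell viability assay read-out, IC50 reflects inhibition of growth of the EW-3 cells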
Description: SANGER: Inhibition of human EW-3 cell growth in a cell viability assay.

SMILES	pIC50
COC(=O)[C@H](CCSC)NC(=O)c1ccc(NC[C@@H](N)CS)cc1-c1ccccc1	< 5.99

test system: KNS-81-FD; assay: cells; format: functional, cell-based, Homo sapiens; settings: Homo sapiens, KNS-81-FD;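 also: growth inhibition of KNS-81-FD cells, read out with a cell viability assay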
Description: SANGER: Inhibition of human KNS-81-FD cell growth in a cell viability assay.

SMILES	pIC50
COC(=O)[C@H](CCSC)NC(=O)c1ccc(NC[C@@H](N)CS)cc1-c1ccccc1	< 5.99

test system: CGTH-W-1; assay: cells; format: functional, cell-based, Homo sapiens; settings: Homo sapiens, CGTH-W-1;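 also: growth inhibition of human CGTH-W-1 cells measured by cell viability assay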
Description: SANGER: Inhibition of human CGTH-W-1 cell growth in a cell viability assay.

SMILES	pIC50
COC(=O)[C@H](CCSC)NC(=O)c1ccc(NC[C@@H](N)CS)cc1-c1ccccc1	< 5.99

test system: TE-11; assay: cells; format: functional, cell-based; settings: Homo sapiens;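 also: growth inhibition of human TE-11 cells, read out by a cell viability assay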
Description: SANGER: Inhibition of human TE-11 cell growth in a cell viability assay.

SMILES	pIC50
COC(=O)[C@H](CCSC)NC(=O)c1ccc(NC[C@@H](N)CS)cc1-c1ccccc1	< 5.99

test system: TE-5; assay: cells; format: functional, cell-based, Homo sapiens; settings: Homo sapiens, TE-5;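 also: inhibition of cell growth, read out by a cell viability assay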
Description: SANGER: Inhibition of human TE-5 cell growth in a cell viability assay.

SMILES	pIC50
COC(=O)[C@H](CCSC)NC(=O)c1ccc(NC[C@@H](N)CS)cc1-c1ccccc1	< 5.99

test system: LS-411N; assay: cells; format: functional, cell-based, Homo sapiens; settings: Homo sapiens, LS-411N

SMILES	pIC50
COC(=O)[C@H](CCSC)NC(=O)c1ccc(NC[C@@H](N)CS)cc1-c1ccccc1	< 5.99

test system: ES1; assay: cells; format: functional, cell-based, Homo sapiens; settings: Homo sapiens, ES1;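 also: growth inhibition of ES1 cells, read out with a cell viability assay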
Description: SANGER: Inhibition of human ES1 cell growth in a cell viability assay.

SMILES	pIC50
COC(=O)[C@H](CCSC)NC(=O)c1ccc(NC[C@@H](N)CS)cc1-c1ccccc1	< 5.99

test system: RKO; assay: cells; format: functional, cell-based, Homo sapiens; settings: Homo sapiens, RKO;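 also: growth inhibition of human RKO cells, read out with a cell viability assay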
Description: SANGER: Inhibition of human RKO cell growth in a cell viability assay.

SMILES	pIC50
COC(=O)[C@H](CCSC)NC(=O)c1ccc(NC[C@@H](N)CS)cc1-c1ccccc1	< 5.99

test system: BT-474; assay: cells; format: functional, cell-based, Homo sapiens; settings: Homo sapiens, BT-474
Description: SANGER: Inhibition of human BT-474 cell growth in a cell viability assay.

SMILES	pIC50
COC(=O)[C@H](CCSC)NC(=O)c1ccc(NC[C@@H](N)CS)cc1-c1ccccc1	< 5.99

test system: LU-134-A; assay: cells; format: functional, cell-based, Homo sapiens; settings: Homo sapiens, LU-134-A
Description: SANGER: Inhibition of human LU-134-A cell growth in a cell viability assay.

SMILES	pIC50
COC(=O)[C@H](CCSC)NC(=O)c1ccc(NC[C@@H](N)CS)cc1-c1ccccc1	< 5.99

test system: BB65-RCC; assay: cells; format: functional, cell-based, Homo sapiens; settings: Homo sapiens, BB65-RCC;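 also: growth inhibition of the cell line, measured with a cell viability assay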
Description: SANGER: Inhibition of human BB65-RCC cell growth in a cell viability assay.

SMILES	pIC50
COC(=O)[C@H](CCSC)NC(=O)c1ccc(NC[C@@H](N)CS)cc1-c1ccccc1	< 5.99

test system: NCI-H446; assay: cells; format: functional, cell-based, Homo sapiens; settings: Homo sapiens, NCI-H446;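 also: growth inhibition of NCI-H446 cells determined by a cell viability assay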
Description: SANGER: Inhibition of human NCI-H446 cell growth in a cell viability assay.

SMILES	pIC50
COC(=O)[C@H](CCSC)NC(=O)c1ccc(NC[C@@H](N)CS)cc1-c1ccccc1	< 5.99

test system: JVM-3; assay: cells; format: functional, cell-based, Homo sapiens; settings: Homo sapiens, JVM-3;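 also: growth inhibition of human JVM-3 cells, read out with a cell viability assay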
Description: SANGER: Inhibition of human JVM-3 cell growth in a cell viability assay.

SMILES	pIC50
COC(=O)[C@H](CCSC)NC(=O)c1ccc(NC[C@@H](N)CS)cc1-c1ccccc1	< 5.99

test system: D-263MG; assay: cells; format: functional, cell-based, Homo sapiens; settings: Homo sapiens, D-263MG
Description: SANGER: Inhibition of human D-263MG cell growth in a cell viability assay.

SMILES	pIC50
COC(=O)[C@H](CCSC)NC(=O)c1ccc(NC[C@@H](N)CS)cc1-c1ccccc1	< 5.99

test system: NOS-1; assay: cells; format: functional, cell-based, Homo sapiens; settings: Homo sapiens, NOS-1;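 also: growth inhibition of the human NOS-1 cell line, read out with a cell viability assay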
Description: SANGER: Inhibition of human NOS-1 cell growth in a cell viability assay.

SMILES	pIC50
COC(=O)[C@H](CCSC)NC(=O)c1ccc(NC[C@@H](N)CS)cc1-c1ccccc1	< 5.99

test system: NCI-H1581; assay: cells; format: functional, cell-based, Homo sapiens; settings: Homo sapiens, NCI-H1581;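 also: cell growth inhibition read out by a viability assay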
Description: SANGER: Inhibition of human NCI-H1581 cell growth in a cell viability assay.

SMILES	pIC50
COC(=O)[C@H](CCSC)NC(=O)c1ccc(NC[C@@H](N)CS)cc1-c1ccccc1	< 5.99

test system: NCI-H1092; assay: cells; format: functional, cell-based, Homo sapiens; settings: Homo sapiens, NCI-H1092;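 also: cell growth inhibition measured with a cell viability assay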
Description: SANGER: Inhibition of human NCI-H1092 cell growth in a cell viability assay.

SMILES	pIC50
COC(=O)[C@H](CCSC)NC(=O)c1ccc(NC[C@@H](N)CS)cc1-c1ccccc1	< 5.99

test system: A253 cell line; assay: cells; format: functional, cell-based, Homo sapiens; settings: Homo sapiens, A253;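 also: growth inhibition of A253 cells, read out with a cell viability assay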
Description: SANGER: Inhibition of human A253 cell growth in a cell viability assay.

SMILES	pIC50
COC(=O)[C@H](CCSC)NC(=O)c1ccc(NC[C@@H](N)CS)cc1-c1ccccc1	< 5.99

test system: HT; assay: cells; format: functional, cell-based, Homo sapiens; settings: Homo sapiens, HT
Description: SANGER: Inhibition of human HT cell growth in a cell viability assay.

SMILES	pIC50
COC(=O)[C@H](CCSC)NC(=O)c1ccc(NC[C@@H](N)CS)cc1-c1ccccc1	< 5.99

test system: EW-1; assay: cells; format: functional, cell-based, Homo sapiens; settings: Homo sapiens, EW-1;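 also: growth inhibition of the human EW-1 cell line, read out by a cell viability assay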
Description: SANGER: Inhibition of human EW-1 cell growth in a cell viability assay.

SMILES	pIC50
COC(=O)[C@H](CCSC)NC(=O)c1ccc(NC[C@@H](N)CS)cc1-c1ccccc1	< 5.99

test system: MN-60; assay: cells; format: functional, cell-based, Homo sapiens; settings: Homo sapiens, MN-60;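 also: growth inhibition of the MN-60 cell line, determined with a cell viability assay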
Description: SANGER: Inhibition of human MN-60 cell growth in a cell viability assay.

SMILES	pIC50
COC(=O)[C@H](CCSC)NC(=O)c1ccc(NC[C@@H](N)CS)cc1-c1ccccc1	< 5.99

test system: KP-N-YS; assay: cells; format: functional, cell-based, Homo sapiens; settings: Homo sapiens, KP-N-YS;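 also: cell viability assay measuring inhibition of cell line growth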
Description: SANGER: Inhibition of human KP-N-YS cell growth in a cell viability assay.

SMILES	pIC50
COC(=O)[C@H](CCSC)NC(=O)c1ccc(NC[C@@H](N)CS)cc1-c1ccccc1	< 5.99

test system: ES3; assay: cells; format: functional, cell-based, Homo sapiens; settings: Homo sapiens, ES3;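 also: growth inhibition of ES3 cells, read out with a cell viability assay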
Description: SANGER: Inhibition of human ES3 cell growth in a cell viability assay.

SMILES	pIC50
COC(=O)[C@H](CCSC)NC(=O)c1ccc(NC[C@@H](N)CS)cc1-c1ccccc1	< 5.99

test system: OCI-AML2; assay: cells; format: functional, cell-based, Homo sapiens; settings: Homo sapiens, OCI-AML2;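 also: growth inhibition of OCI-AML2 cells, read out with a cell viability assay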
Description: SANGER: Inhibition of human OCI-AML2 cell growth in a cell viability assay.

SMILES	pIC50
COC(=O)[C@H](CCSC)NC(=O)c1ccc(NC[C@@H](N)CS)cc1-c1ccccc1	< 5.99

test system: SK-MEL-2; assay: cells; format: functional, cell-based, Homo sapiens; settings: Homo sapiens, SK-MEL-2;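 also: growth inhibition of human SK-MEL-2 cells measured with a cell viability assay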
Description: SANGER: Inhibition of human SK-MEL-2 cell growth in a cell viability assay.

SMILES	pIC50
COC(=O)[C@H](CCSC)NC(=O)c1ccc(NC[C@@H](N)CS)cc1-c1ccccc1	< 5.99

test system: COLO-824; assay: cells; format: functional, cell-based, Homo sapiens; settings: Homo sapiens, COLO-824
Description: SANGER: Inhibition of human COLO-824 cell growth in a cell viability assay.

SMILES	pIC50
COC(=O)[C@H](CCSC)NC(=O)c1ccc(NC[C@@H](N)CS)cc1-c1ccccc1	< 5.99

test system: RS4-11; assay: cells; format: functional, cell-based, Homo sapiens; settings: Homo sapiens, RS4-11;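 also: growth inhibition of RS4-11 cells, read out by a cell viability assay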
Description: SANGER: Inhibition of human RS4-11 cell growth in a cell viability assay.

SMILES	pIC50
COC(=O)[C@H](CCSC)NC(=O)c1ccc(NC[C@@H](N)CS)cc1-c1ccccc1	< 5.99

test system: KALS-1; assay: cells; format: functional, cell-based, Homo sapiens; settings: Homo sapiens, KALS-1; read-out: IC50;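 also: growth inhibition of KALS-1 cells, determined with a cell viability assay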
Description: SANGER: Inhibition of human KALS-1 cell growth in a cell viability assay.

SMILES	pIC50
COC(=O)[C@H](CCSC)NC(=O)c1ccc(NC[C@@H](N)CS)cc1-c1ccccc1	< 5.99

test system: KU812 cell line; assay: cells; format: functional, cell-based, Homo sapiens; settings: Homo sapiens, KU812;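 also: growth inhibition of KU812 cells, read out with a cell viability assay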
Description: SANGER: Inhibition of human KU812 cell growth in a cell viability assay.

SMILES	pIC50
COC(=O)[C@H](CCSC)NC(=O)c1ccc(NC[C@@H](N)CS)cc1-c1ccccc1	< 5.99

test system: HCE-4; assay: cells; format: functional, cell-based; settings: Homo sapiens;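 also: cell viability assay measuring inhibition of growth in the human HCE-4 cell line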
Description: SANGER: Inhibition of human HCE-4 cell growth in a cell viability assay.

SMILES	pIC50
COC(=O)[C@H](CCSC)NC(=O)c1ccc(NC[C@@H](N)CS)cc1-c1ccccc1	< 5.99

test system: UACC-257; assay: cells; format: functional, cell-based, Homo sapiens; settings: Homo sapiens, UACC-257
Description: SANGER: Inhibition of human UACC-257 cell growth in a cell viability assay.

SMILES	pIC50
COC(=O)[C@H](CCSC)NC(=O)c1ccc(NC[C@@H](N)CS)cc1-c1ccccc1	< 5.99

test system: KARPAS-299; assay: cells; format: functional, cell-based, Homo sapiens; settings: Homo sapiens, KARPAS-299
Description: SANGER: Inhibition of human KARPAS-299 cell growth in a cell viability assay.

SMILES	pIC50
COC(=O)[C@H](CCSC)NC(=O)c1ccc(NC[C@@H](N)CS)cc1-c1ccccc1	< 5.99

test system: PSN1; assay: cells; format: functional, cell-based, Homo sapiens; settings: Homo sapiens, PSN1;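 also: suppression of growth of human PSN1 cells, read out by a cell viability assay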
Description: SANGER: Inhibition of human PSN1 cell growth in a cell viability assay.

SMILES	pIC50
COC(=O)[C@H](CCSC)NC(=O)c1ccc(NC[C@@H](N)CS)cc1-c1ccccc1	< 5.99

test system: MLMA; assay: cells; format: functional, cell-based, Homo sapiens; settings: Homo sapiens, MLMA;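 also: growth inhibition of MLMA cells (human), determined through a cell viability readout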
Description: SANGER: Inhibition of human MLMA cell growth in a cell viability assay.

SMILES	pIC50
COC(=O)[C@H](CCSC)NC(=O)c1ccc(NC[C@@H](N)CS)cc1-c1ccccc1	< 5.99

test system: KM12; assay: cells; format: functional, cell-based, Homo sapiens; settings: Homo sapiens, KM12;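 also: KM12 cell growth inhibition, read out with a cell viability assay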
Description: SANGER: Inhibition of human KM12 cell growth in a cell viability assay.

SMILES	pIC50
COC(=O)[C@H](CCSC)NC(=O)c1ccc(NC[C@@H](N)CS)cc1-c1ccccc1	< 5.99

test system: NCI-H526; assay: cells; format: functional, cell-based, Homo sapiens; settings: Homo sapiens, NCI-H526;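 also: growth inhibition of the human NCI-H526 cell line, measured by a cell viability assay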
Description: SANGER: Inhibition of human NCI-H526 cell growth in a cell viability assay.

SMILES	pIC50
COC(=O)[C@H](CCSC)NC(=O)c1ccc(NC[C@@H](N)CS)cc1-c1ccccc1	< 5.99

test system: NCI-H1770; assay: cells; format: functional, cell-based, Homo sapiens; settings: Homo sapiens, NCI-H1770;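 also: growth inhibition of NCI-H1770 cells determined with a viability readout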
Description: SANGER: Inhibition of human NCI-H1770 cell growth in a cell viability assay.

SMILES	pIC50
COC(=O)[C@H](CCSC)NC(=O)c1ccc(NC[C@@H](N)CS)cc1-c1ccccc1	< 5.99

test system: J-RT3-T3-5; assay: cells; format: functional, cell-based, Homo sapiens; settings: Homo sapiens, J-RT3-T3-5;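 also: cell viability assay measuring growth inhibition of human J-RT3-T3-5 cells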
Description: SANGER: Inhibition of human J-RT3-T3-5 cell growth in a cell viability assay.

SMILES	pIC50
COC(=O)[C@H](CCSC)NC(=O)c1ccc(NC[C@@H](N)CS)cc1-c1ccccc1	< 5.99

test system: KG-1; assay: cells; format: functional, cell-based, Homo sapiens; settings: Homo sapiens, KG-1;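 also: growth inhibition of KG-1 cells, read out by a cell viability assay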
Description: SANGER: Inhibition of human KG-1 cell growth in a cell viability assay.

SMILES	pIC50
COC(=O)[C@H](CCSC)NC(=O)c1ccc(NC[C@@H](N)CS)cc1-c1ccccc1	< 5.99

test system: NCI-H1648; assay: cells; format: functional, cell-based, Homo sapiens; settings: Homo sapiens, NCI-H1648;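 also: cell viability assay measuring inhibition of NCI-H1648 cell growth, from the Sanger screening data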
Description: SANGER: Inhibition of human NCI-H1648 cell growth in a cell viability assay.

SMILES	pIC50
COC(=O)[C@H](CCSC)NC(=O)c1ccc(NC[C@@H](N)CS)cc1-c1ccccc1	< 5.99

test system: U-266; assay: cells; format: functional, cell-based, Homo sapiens; settings: Homo sapiens, U-266
Description: SANGER: Inhibition of human U-266 cell growth in a cell viability assay.

SMILES	pIC50
COC(=O)[C@H](CCSC)NC(=O)c1ccc(NC[C@@H](N)CS)cc1-c1ccccc1	< 5.99

test system: KY821; assay: cells; format: functional, cell-based, Homo sapiens; settings: Homo sapiens, KY821;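 also: growth inhibition of human KY821 cells, read out by a cell viability assay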
Description: SANGER: Inhibition of human KY821 cell growth in a cell viability assay.

SMILES	pIC50
COC(=O)[C@H](CCSC)NC(=O)c1ccc(NC[C@@H](N)CS)cc1-c1ccccc1	< 5.99

test system: MZ1-PC; assay: cells; format: functional, cell-based, Homo sapiens; settings: Homo sapiens, MZ1-PC;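 also: cell viability assay measuring growth inhibition of human MZ1-PC cells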
Description: SANGER: Inhibition of human MZ1-PC cell growth in a cell viability assay.

SMILES	pIC50
COC(=O)[C@H](CCSC)NC(=O)c1ccc(NC[C@@H](N)CS)cc1-c1ccccc1	< 5.99

test system: D-247MG; assay: cells; format: functional, cell-based; settings: Homo sapiens
Description: SANGER: Inhibition of human D-247MG cell growth in a cell viability assay.

SMILES	pIC50
COC(=O)[C@H](CCSC)NC(=O)c1ccc(NC[C@@H](N)CS)cc1-c1ccccc1	< 5.99

test system: SW 962; assay: cells; format: functional, cell-based, Homo sapiens; settings: Homo sapiens, SW 962;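 also: growth inhibition of human SW962 cells, read out by a cell viability assay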
Description: SANGER: Inhibition of human SW962 cell growth in a cell viability assay.

SMILES	pIC50
COC(=O)[C@H](CCSC)NC(=O)c1ccc(NC[C@@H](N)CS)cc1-c1ccccc1	< 5.99

test system: TGBC1TKB; assay: cells; format: functional, cell-based, Homo sapiens; settings: Homo sapiens, TGBC1TKB;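 also: growth inhibition of TGBC1TKB cells, read out by a cell viability assay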
Description: SANGER: Inhibition of human TGBC1TKB cell growth in a cell viability assay.

SMILES	pIC50
COC(=O)[C@H](CCSC)NC(=O)c1ccc(NC[C@@H](N)CS)cc1-c1ccccc1	< 5.99

test system: SNU1; assay: cells; format: functional, cell-based, Homo sapiens; settings: Homo sapiens, SNU1;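 also: growth inhibition of human NCI-SNU-1 cells, measured with a cell viability assay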
Description: SANGER: Inhibition of human NCI-SNU-1 cell growth in a cell viability assay.

SMILES	pIC50
COC(=O)[C@H](CCSC)NC(=O)c1ccc(NC[C@@H](N)CS)cc1-c1ccccc1	< 5.99
